Consider 34 molecules from PubChem BioAssay AID651569 (Sanford-Burnham Center for Chemical Genomics, 2012).

The source made the active and inactive calls. How the calls were made is not given here.

The assay has as its system luminescent cytotoxicity (cell viability) counter-screen. As to the kind of experiment: cytotoxicity of Gli-SUFU antagonist hits, dose response, cytotoxicity control for Gli-SUFU antagonist project, cell-based, luminescence, uHTS hits (AID 651569).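 Further: compound exposure lasted overnight before the viability readout.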
Turning to `Brc1ccc(-[n+]2c(-c3ccccc3)cc(-c3ccccc3)cc2-c2ccccc2)cc1`, the IC50 (usually the point on the concentration scale where inhibition reaches its midpoint) is > 20 µM (inactive).
As for `N=c1c2c(n(Cc3ccc(F)cc3)c3c1CCC3)CCCC2`, the IC50 is > 20 µM (inactive).
Regarding `C=CCOc1nc2c(c(=O)n(C)c(=O)n2C)n1Cc1ccc(Cl)cc1`, the IC50 is > 20 µM (inactive).
On to `Cc1cccc(CCN2C(N(C)C)=NC[C@@H]2CC(C)C)c1`, for which the IC50 was 18.2 µM.
As for `Cc1nc2ccccc2c2oc(C(=O)N3CCN(C4CCCCC4)CC3)cc12`, the IC50 is > 20 µM (inactive).
On to `CCCCn1c(CN(C)Cc2ccccc2)nc2c1c(=O)n(C)c(=O)n2C`, for which the IC50 is > 20 µM (inactive).
Consider `Cc1c(C(C)C)c(=O)n(-c2ccc(S(=O)(=O)NCc3ccccc3)cc2)n1C`, for which the IC50 is > 20 µM (inactive).
`CC(Sc1nc2ccccc2c(=O)n1C)C(=O)N(C)C1CCCCC1` (centres undefined): the IC50 was > 20 µM (inactive).
In the case of `CCN1CCCC1CNc1ncnc2c1[nH]c1ccc(Cl)cc12` (centres undefined), the IC50 is > 20 µM (inactive).
For the molecule `O=C(C[n+]1cc(-c2ccccc2)n2c1CCCCC2)c1ccc(Cl)cc1`, the IC50 is > 20 µM (inactive).
In the case of `COc1ccc(C(=O)C[n+]2cc(-c3ccc(OC)cc3)n3c2CCCC3)cc1`, the IC50 is > 20 µM (inactive).
Consider `O=C(N[C@@H]1C/C=C\C[C@@H](CC(=O)N(CCO)Cc2ccccc2)C(=O)NC[C@H](c2ccccc2)OC1=O)OCC1c2ccccc2-c2ccccc21`, for which the IC50 was > 20 µM (inactive).
For `CCCCCCCOc1ccc(OC(=O)c2ccncc2)cc1`, the IC50 is > 20 µM (inactive).
`O=C(Nc1cc2c3c(c1)C1CCCC1CN3CC1CCCC21)c1ccc([N+](=O)[O-])cc1` (centres undefined): the IC50 is > 20 µM (inactive).
On to `Cc1cc(Nc2ccc([N+](=O)[O-])cc2)c2ccccc2n1`, for which the IC50 was > 20 µM (inactive).
Then `CC(C)(C)c1ccc(C(=O)NC(=S)Nc2ccc(N3CCOCC3)cc2)cc1`, with > 20 µM (inactive); and `CCCCn1c(SCc2c(C)noc2C)nc2cc(S(N)(=O)=O)ccc21`, with > 20 µM (inactive); and `CCOC(=O)c1c(NC(=O)C(=O)N/N=C/c2ccccc2O)sc2c1CCCCC2`, with 19 µM.
For the molecule `CCC(C)[C@H]1CN=C(N)N1CCc1cccc2ccccc12` (some centres undefined), the IC50 was > 20 µM (inactive).
On to `Clc1ccc(-c2cn(-c3ccccc3)c3[n+]2CCS3)cc1`, for which the IC50 was > 20 µM (inactive).
As for `S=C(Nc1ccccc1)N1CCC(Cc2ccccc2)CC1`, the IC50 was > 20 µM (inactive).
For `O=C(C[C@@H]1C/C=C\C[C@@H](NC(=O)OCC2c3ccccc3-c3ccccc32)C(=O)OC[C@@H](Cc2ccccc2)NC1=O)NCCO`, the IC50 was > 20 µM (inactive).
Then `O=C(Cn1cc(C(=O)c2ccco2)c2ccccc21)Nc1ccccc1F`, with > 20 µM (inactive); and `Cc1ccc(-c2c[n+](Cc3ccc(Cl)c(Cl)c3)c3n2CCC3)cc1`, with 13.7 µM.
`CC(C)C[C@H]1CN=C(N(C)C)N1CCCCc1ccccc1`: the IC50 was > 20 µM (inactive).
Then `CCOc1ccc(NS(=O)(=O)c2cccc(C(=O)N3CCN(C/C=C/c4ccccc4)CC3)c2)cc1`, with > 20 µM (inactive); and `Cc1ccc2c(c1)S/C(=C/c1ccc[n+](C)c1)N2CCO`, with > 20 µM (inactive); and `CC(=O)c1cn(CCOc2ccccc2C)c2ccccc12`, with > 20 µM (inactive).
Consider `COc1nnc(-c2ccc(N3CCCCC3)c(N)c2)c2ccccc12`, for which the IC50 is > 20 µM (inactive).
Turning to `O=C(NC(c1cccnc1)C(F)(F)F)c1cc(COc2ccc3c(c2)CCCC3)on1` (centres undefined), the IC50 was > 20 µM (inactive).
On to `CCCCCCCN1C2=NCCCN2c2ccccc21`, for which the IC50 was > 20 µM (inactive).
Turning to `CC(Sc1nc2ccccc2c(=O)n1C)C(=O)NC1CCCCC1C` (centres undefined), the half-inhibitory concentration (IC50) was 16.7 µM.
As to `CCn1c(C)nc2cc(-c3nnc(-c4c(-c5ccccc5)noc4C)o3)ccc21`, the IC50 is > 20 µM (inactive).
With `CC(C)Cc1ccc(C(C)C(=O)Nc2cccnc2)cc1` (centres undefined), the IC50 was > 20 µM (inactive).
